{"source": "patent US10828272B2", "about": "“Means to facilitate food intake and food retention” (Chardon Group B.V., priority 2012, dated 2020)", "test_system": "Wistar rats", "experiment": "Food intake test (30 min, living mealworms) in non-deprived rats", "assay_type": "in vivo, rat", "settings": "for Dose needed for effect on food intake in this procedure (conclusion): into esophagus", "text": "In the following examples food intake tests were run with cohorts of 32 Wistar rats having food intake sessions in two groups of 16 rats in parallel. There were 8 rats per experimental group. The rats weighed in the range of 260-370 grams. Rats were acclimatized to the housing conditions in our laboratory for at least one week after arrival from the breeder. The rats were housed in pairs in Macrolon cages of 42×26 cm and 15 cm high, with standard food and water available ad libitum. The day-night cycle was not reversed (lights on at 7:00 AM, off 19:00 PM). Food intake tests were run in the same room wherein the rats were housed in the light period of the diurnal cycle of the rats. In a further period the rats were habituated to human handling and to the manner of presentation of mealworms in the food intake tests. Food intake was measured with rats without food deprivation. Food intake tests were done by placing the rats from their home cage individually into clean Macrolon (42×26×15 cm) cages without bedding. A weighed amount of at least 15-20 g living mealworms in a petri dish was placed in the middle of the cage and rats were allowed 30 minutes for eating mealworms. During the 30 minute test for food intake no drinking water was available. Injection treatments were administered at determined times before the food intake test. After drug administration the rats were returned to their home cage. Both rats of a pair in a living cage were assigned to the same treatment groups. Otherwise allocation of rats to experimental groups was done such that the treatments were equally and randomly spread over the duration of an experiment. The experimenter remained in the test room for the duration of an experiment. This allowed observation of general behavioural effects of the treatments. Abnormalities were recorded.\nFor drug administration commercially available stock solutions in vials were used: • lidocainehydrochloride 20 mg/ml injection fluid (Fresenius Kabi); procainamidehydrochloride 100 mg/ml injection fluid (Apotheek Haagse Ziekenhuizen); • ropivacainehydrochloride 7.5 mg/ml injection fluid (Fresenius Kabi); • metoclopramine (Sigma) was weighed and dissolved for use.\nDrugs were administered in volumes of 1 ml/kg rat.\nVehicle: for local anesthetics the commercial physiological saline solutions for injection were used directly or the solution was diluted with distilled water. Alginate for a 2% viscous alginate solution was added 18 hours before use of the solution for injection. The solution was prepared to a viscous solution by allowing 18 hours of slow mechanical mixing.\nFor administration of the drug into the lumen of the esophagus the injection fluid was administered by entering a thick needle with rounded tip via, and into the esophagus just above the lower esophageal sphincter and retreating during injection to release the volume to be injected just behind the pharynx.\nFor administration into the stomach a similar 1 mm thick needle with a 2 mm tip and 60 mm length was introduced into the stomach via the esophagus as customary for oral administration in rats.\nFor administration subcutaneously (sc) the injection fluid was injected with a sharp thin needle under the skin in the neck.", "note": "Structures can show the parent of a compound that is named as a salt.", "data": [{"smiles": "CCCN1CCCC[C@H]1C(=O)Nc1c(C)cccc1C.Cl", "note": "[Ropivacaine, ropivacainehydrochloride]", "values": [{"measurement": "Grams of mealworms eaten (AVG)", "setting": "Example 3, 1.25 mg/kg esophagus, 30 minutes before test", "value": 13.40, "unit": "grams"}, {"measurement": "Grams of mealworms eaten (AVG)", "setting": "Example 4, 3.75 mg/kg esophagus, 30 minutes before test", "value": 12.08, "unit": "grams"}, {"measurement": "Grams of mealworms eaten (AVG)", "setting": "Example 4, 7.5 mg/kg esophagus, 30 minutes before test", "value": 13.58, "unit": "grams"}, {"measurement": "Effect on food intake (conclusion)", "setting": "Example 4, 7.5 mg/kg in the esophagus", "value": "enhanced food intake"}, {"measurement": "Effect on meal size (conclusion)", "setting": "Example 5, 7.5 mg/kg and 11.25 mg/kg in the esophagus", "value": "effective in increasing meal size"}, {"measurement": "Grams of mealworms eaten (AVG)", "setting": "Example 5, 7.5 mg/kg esophagus", "value": 13.24, "unit": "grams"}, {"measurement": "Grams of mealworms eaten (AVG)", "setting": "Example 5, 7.5 mg/kg stomach", "value": 10.72, "unit": "grams"}, {"measurement": "Grams of mealworms eaten (AVG)", "setting": "Example 5, 11.25 mg/kg esophagus", "value": 14.44, "unit": "grams"}, {"measurement": "Dose needed for effect on food intake in this procedure (conclusion)", "setting": "30 minutes before test", "value": "higher than 1.25 mg/kg"}]}, {"smiles": "CCN(CC)CCNC(=O)c1ccc(N)cc1", "note": "[Procainamide, procainamidehydrochloride]", "values": [{"measurement": "Grams of mealworms eaten (AVG)", "setting": "Example 3, 20 m/kg esophagus, 30 minutes before test", "value": 12.11, "unit": "grams"}, {"measurement": "Grams of mealworms eaten (AVG)", "setting": "Example 4, 100 m/kg esophagus, 30 minutes before test", "value": 10.55, "unit": "grams"}, {"measurement": "Dose needed for effect on food intake in this procedure (conclusion)", "setting": "30 minutes before test", "value": "higher than 20 mg/kg"}]}, {"smiles": "CCN(CC)CCNC(=O)c1cc(Cl)c(N)cc1OC", "note": "[metoclopramide]", "values": [{"measurement": "Grams of mealworms eaten (AVG)", "setting": "Example 6, 3 mg/kg sc, 30 minutes before test", "value": 11.86, "unit": "grams"}, {"measurement": "Grams of mealworms eaten (AVG)", "setting": "Example 6, 10 mg/kg sc, 30 minutes before test", "value": 1.25, "unit": "grams"}, {"measurement": "Grams of mealworms eaten (AVG)", "setting": "Example 6, 30 mg/kg sc, 30 minutes before test", "value": 0.22, "unit": "grams"}, {"measurement": "Effect on food intake (conclusion)", "setting": "Example 6, subcutaneously at doses above 3 mg/kg", "value": "inhibits food intake"}, {"measurement": "Grams of mealworms eaten (AVG)", "setting": "Example 7, 0.1 mg/kg sc, 30 minutes before test", "value": 13.51, "unit": "grams"}, {"measurement": "Grams of mealworms eaten (AVG)", "setting": "Example 7, 0.3 mg/kg sc, 30 minutes before test", "value": 12.23, "unit": "grams"}, {"measurement": "Grams of mealworms eaten (AVG)", "setting": "Example 7, 1 mg/kg sc, 30 minutes before test", "value": 15.76, "unit": "grams"}, {"measurement": "Effect on food intake (conclusion)", "setting": "Example 7, 0.1 and 0.3 mg/kg subcutaneously", "value": "ineffective"}, {"measurement": "Effect on food intake (conclusion)", "setting": "Example 7, subcutaneous injection of 1 mg/kg", "value": "increases food intake"}]}, {"smiles": "CCN(CC)CC(=O)Nc1c(C)cccc1C", "note": "[Lidocaine•HCl, lidocainehydrochloride]", "values": [{"measurement": "Grams of mealworms eaten (AVG)", "setting": "Example 1, 1 mg/kg into esophagus, 30 minutes before test", "value": 14.85, "unit": "grams"}, {"measurement": "Grams of mealworms eaten (AVG)", "setting": "Example 1, 3 mg/kg into esophagus, 30 minutes before test", "value": 14.46, "unit": "grams"}, {"measurement": "Grams of mealworms eaten (AVG)", "setting": "Example 1, 10 mg/kg into esophagus, 30 minutes before test", "value": 14.54, "unit": "grams"}, {"measurement": "Grams of mealworms eaten (AVG)", "setting": "Example 2, 20 mg/kg esophagus, 15 minutes before test", "value": 16.91, "unit": "grams"}, {"measurement": "Grams of mealworms eaten (AVG)", "setting": "Example 2, 20 mg/kg esophagus, 30 minutes before test", "value": 17.14, "unit": "grams"}, {"measurement": "Grams of mealworms eaten (AVG)", "setting": "Example 2, 20 mg/kg stomach, 30 minutes before test", "value": 16.28, "unit": "grams"}, {"measurement": "Effect on food intake, esophagus compared with stomach (conclusion)", "setting": "Example 2, 20 mg/kg, application in the esophagus versus into the stomach", "value": "more effective"}, {"measurement": "Effect on food intake (conclusion)", "setting": "Example 2, dose of 20 mg/kg", "value": "effective"}, {"measurement": "Dose needed for effect on food intake in this procedure (conclusion)", "setting": "30 minutes before test", "value": "above 10 mg/kg"}]}]}
